# Experimental data from article PMC2696686 (Bioorganic & medicinal chemistry, 2009).
# Tests used:
# [1] = target: T1, rDAT (Rattus norvegicus, UniProt P23977); settings: pattern previously seen; ref [7]; cited from earlier work
# [2] = Storage stability of the radioligand by HPLC; type: physicochemical; settings: 25 days at −20 °C in the dark; initial purity 99%
# [3] = target: T1, rDAT; settings: LLC-PK1 cells expressing rDAT
# [4] = target: 6Xhis-hDAT (Homo sapiens, UniProt Q01959); settings: 100 μM (−)-cocaine; HEK 293 cells expressing 6Xhis-hDAT
# [5] = target: T2, hDAT (Homo sapiens, UniProt Q01959); test: [3H]-WIN-35,428 binding inhibition in N2A neuroblastoma cells expressing hDAT
# [6] = target: T2, hDAT; test: [3H]-dopamine uptake inhibition in N2A neuroblastoma cells expressing hDAT; type: cell-based; settings: uptake IC50 higher than binding Ki
# T2 sequence (Q01959 whole entry): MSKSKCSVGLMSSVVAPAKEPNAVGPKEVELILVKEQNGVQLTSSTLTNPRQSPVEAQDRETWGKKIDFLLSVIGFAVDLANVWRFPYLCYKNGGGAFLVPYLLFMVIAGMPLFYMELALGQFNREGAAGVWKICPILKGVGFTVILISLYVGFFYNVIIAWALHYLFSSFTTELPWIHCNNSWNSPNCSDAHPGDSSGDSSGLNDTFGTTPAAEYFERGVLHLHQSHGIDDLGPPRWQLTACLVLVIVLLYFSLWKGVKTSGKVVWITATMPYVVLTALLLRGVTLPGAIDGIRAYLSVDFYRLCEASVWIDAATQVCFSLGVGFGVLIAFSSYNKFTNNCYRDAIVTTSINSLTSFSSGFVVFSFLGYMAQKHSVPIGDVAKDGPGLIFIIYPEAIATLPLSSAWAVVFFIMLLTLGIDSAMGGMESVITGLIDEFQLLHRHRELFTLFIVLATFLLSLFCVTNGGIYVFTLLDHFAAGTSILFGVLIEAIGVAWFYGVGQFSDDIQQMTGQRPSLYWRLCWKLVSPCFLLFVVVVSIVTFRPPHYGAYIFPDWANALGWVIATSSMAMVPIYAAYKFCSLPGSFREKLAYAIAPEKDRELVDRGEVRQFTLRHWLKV
# T1 sequence (P23977 whole entry): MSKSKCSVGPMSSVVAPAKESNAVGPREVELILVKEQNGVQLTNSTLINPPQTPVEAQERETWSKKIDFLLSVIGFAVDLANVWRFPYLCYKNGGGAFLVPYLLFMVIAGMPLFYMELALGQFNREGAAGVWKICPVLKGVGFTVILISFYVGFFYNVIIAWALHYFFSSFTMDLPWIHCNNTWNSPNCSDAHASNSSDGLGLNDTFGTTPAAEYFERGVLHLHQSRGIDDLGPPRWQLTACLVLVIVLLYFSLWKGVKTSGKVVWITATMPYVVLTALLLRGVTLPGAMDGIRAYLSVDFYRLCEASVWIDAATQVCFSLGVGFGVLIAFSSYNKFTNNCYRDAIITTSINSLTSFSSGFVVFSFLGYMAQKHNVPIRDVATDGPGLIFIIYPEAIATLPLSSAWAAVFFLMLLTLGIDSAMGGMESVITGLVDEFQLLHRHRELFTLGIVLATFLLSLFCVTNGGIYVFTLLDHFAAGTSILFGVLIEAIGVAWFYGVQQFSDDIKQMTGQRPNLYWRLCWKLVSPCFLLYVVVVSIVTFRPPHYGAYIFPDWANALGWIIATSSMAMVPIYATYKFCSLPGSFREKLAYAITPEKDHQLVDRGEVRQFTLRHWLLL
# Chain of 6Xhis-hDAT (Q01959 whole entry): as the sequence (Q01959 whole entry) above
compound,measurement,setting,value
C[C@@H]1CN(CCCn2c3ccccc3c3ccccc32)C[C@H](C)N1 [rimcazole],Binding versus uptake inhibition value (pattern),[1],essentially the same value
CN1[C@@H]2CC[C@H]1C[C@@H](OC(c1ccccc1)c1ccccc1)C2 [benztropine],Binding versus uptake inhibition value (pattern),[1],essentially the same value
"CCCC(C(=O)c1ccc(N=[N+]=[N-])c([125I])c1)N1CCCC1 (stereo not drawn) [[^125I]-6, [^125I]-1-(4-Azido-3-iodophenyl)-2-pyrrolidin-1-yl-pentan-1-one]",Radiochemical purity after storage (stability),[2],92%
same,Incorporation into DAT on photoactivation (labeled protein of ~80 kDa),"[3]; 30 nM radioligand, 1 h, 4°C, UV 254 nm, 45 s",incorporation
"COC(=O)[C@H]1[C@@H](OC(=O)c2ccccc2)C[C@@H]2CC[C@H]1N2C [cocaine, reference compound]",Effect on [125I]-6 photolabeling of DAT,[3]; 100 μM (−)-cocaine,blocked
same,Effect on [125I]-6 photolabeling of DAT,[4],blocked
"CCCC(C(=O)c1ccc(N=[N+]=[N-])c(I)c1)N1CCCC1 (stereo not drawn) [Compound 6, 1-(4-Azido-3-iodophenyl)-2-pyrrolidin-1-yl-pentan-1-one]","DAT affinity, fold higher than bupropion",[5]; ratio of Ki values versus bupropion,6 fold
same,"DAT affinity, fold less than pyrovalerone",[5]; ratio of Ki values versus pyrovalerone,10 fold
"CCCC(C(=O)c1ccc(N)cc1)N1CCCC1 (stereo not drawn) [Compound 8, 1-(4-Aminophenyl)-2-pyrrolidin-1-yl-pentan-1-one]",Uptake inhibition IC50 relative to binding Ki,[6],essentially the same value
